Legend:
[1] = tested on: Helicobacter pylori strains 9470, 9472 and 9474; assay: Antibacterial action against Helicobacter pylori (MIC, agar dilution); assay type: cell-based; settings: 72 h, 37° C., 3 days, microaerophilic conditions, read-out: MIC (Minimum Inhibitory Concentration)
Procedure: Antibacterial Action Against Helicobacter Pylori The antibacterial activity of the compound of the invention was evaluated by using Helicobacter pylori strains 9470, 9472 and 9474 and determining MIC (Minimum Inhibitory Concentration) of the compound of the invention against Helicobacter pylori. Helicobacter pylori was cultured by plating for 4 days. A medium was prepared by dissolving Brain Heart Infusion Agar (product of Difco Laboratories) in a prescribed amount of distilled water, sterilizing in an autoclave, adding equine blood (product of Nippon Seibutsu Zairyo) to give a concentration thereof of 7% and then solidifying the mixture. Under microaerophilic conditions, Helicobacter pylori which had been cultured at 37° C. for 4 days was suspended in physiological saline to give its viable count of about 10^8 CFU/ml. The suspension was then diluted to 100 times and a portion (about 10 μl) of the diluted suspension was inoculated in a medium for measuring MIC. The medium employed for measuring MIC has the same composition as the preculture medium. A compound of this invention was dissolved in dimethyl sulfoxide (DMSO) and two-fold serial dilutions were made with sterilized water. After mixing the solution and the medium in a ratio of 1:99, a solidified product in the Petri dish was employed as an MIC measuring medium. […]

[2] = biological target: T1, proton potassium-adenosine triphosphatase (H+.K+-ATPase) (Sus scrofa, UniProt P19156); assay: Test on activity of proton potassium-adenosine triphosphatase (H+.K+-ATPase); assay type: biochemical; settings: swine gastric mucosal microsomal fraction, pH 6.85, 37° C.; read-out: 50% inhibitory concentration (IC50) against proton potassium-adenosine triphosphatase (converted)
T1 construct: A microsomal fraction prepared in accordance with the method of Sachs, et al; from tissue; host or cells: swine gastric mucosa, microsomal fraction (density gradient ultracentrifugation)
Procedure: Test on Activity of Proton•potassium-adenosine Triphosphatase (H^+.K^+-ATPase) A microsomal fraction prepared in accordance with the method of Sachs, et al. [J. Bio. Chem., 251, 7690(1976)] by homogenizing a fresh gastric mucosal layer of swine and then subjecting the homogenate to density gradient ultra centrifugation was employed as a proton potassium-adenosine triphosphatase preparation. A solution (10 μl) of a test compound dissolved in dimethyl sulfoxide was added to 0.75 ml of a 70 mM tris hydrochloric acid buffer (5 mM magnesium chloride, 20 mM potassium chloride, pH=6.85) containing 30 to 80 μg/ml, in terms of the protein concentration, of the enzyme preparation. The mixture was incubated with 200 times/min of agitation at 37° C. for 45 minutes. The enzymatic reaction was started by adding 0.25 ml of an 8 mM solution of disodium adenosine triphosphate. After this enzymatic reaction was continued for 20 minutes, 1 ml of a 10% trichloroacetic acid—activated charcoal (100 mg) solution was added to terminate the reaction. […] The amount of inorganic phosphoric acid in a reaction mixture free from potassium chloride was also measured. By subtracting this amount from the amount of inorganic phosphoric acid in the presence of potassium chloride, protonpotassium-adenosine triphosphatase activity (H^+.K^+-ATPase) was determined. […]

[3] = tested on: gastric acid secretion; assay: Test for inhibition on gastric acid secretion in rats (pylorus ligation); assay type: in vivo; settings: pylorus-ligated rats, orally administered, four hours after ligation
Procedure: Test for Inhibition on Gastric Acid Secretion in Rats
After a group of rats was fasted overnight, they were subjected to midline abdominal incision and their pylorus was ligated under anesthesia with ether. The stomach and duodenum were returned to their original positions in the body, followed by closing at the abdominal incision part. A test compound (0.3 to 10 mg/ml) was suspended in an aqueous solution containing 0.5% of sodium carboxymethylcellulose and 0.4% of Tween 80 (trade mark). The resulting suspension (1 ml/kg of body weight) was orally administered to the rats through a stomach tube. Four hours after the ligation, the rats were sacrificed by inhalation of CO2 gas. They were subjected to abdominal incision to remove their stomach. The content of the stomach was collected in a glass-made graduated centrifuge tube. After centrifugation, the amount (ml) of the supernatant and the amount (ml) of the precipitate were measured. The precipitate of the amount exceeding 0.5 ml was regarded as feces and excluded from the data. The supernatant ([…]) was poured into a test tube. Distilled water (4 ml) was added to the solution, and the solution was titrated to pH 7.0 with 0.01 N sodium hydroxide. […] Each parameter was calculated in accordance with the following equations: […]

T1 sequence (P19156 2-1034 limits assumed): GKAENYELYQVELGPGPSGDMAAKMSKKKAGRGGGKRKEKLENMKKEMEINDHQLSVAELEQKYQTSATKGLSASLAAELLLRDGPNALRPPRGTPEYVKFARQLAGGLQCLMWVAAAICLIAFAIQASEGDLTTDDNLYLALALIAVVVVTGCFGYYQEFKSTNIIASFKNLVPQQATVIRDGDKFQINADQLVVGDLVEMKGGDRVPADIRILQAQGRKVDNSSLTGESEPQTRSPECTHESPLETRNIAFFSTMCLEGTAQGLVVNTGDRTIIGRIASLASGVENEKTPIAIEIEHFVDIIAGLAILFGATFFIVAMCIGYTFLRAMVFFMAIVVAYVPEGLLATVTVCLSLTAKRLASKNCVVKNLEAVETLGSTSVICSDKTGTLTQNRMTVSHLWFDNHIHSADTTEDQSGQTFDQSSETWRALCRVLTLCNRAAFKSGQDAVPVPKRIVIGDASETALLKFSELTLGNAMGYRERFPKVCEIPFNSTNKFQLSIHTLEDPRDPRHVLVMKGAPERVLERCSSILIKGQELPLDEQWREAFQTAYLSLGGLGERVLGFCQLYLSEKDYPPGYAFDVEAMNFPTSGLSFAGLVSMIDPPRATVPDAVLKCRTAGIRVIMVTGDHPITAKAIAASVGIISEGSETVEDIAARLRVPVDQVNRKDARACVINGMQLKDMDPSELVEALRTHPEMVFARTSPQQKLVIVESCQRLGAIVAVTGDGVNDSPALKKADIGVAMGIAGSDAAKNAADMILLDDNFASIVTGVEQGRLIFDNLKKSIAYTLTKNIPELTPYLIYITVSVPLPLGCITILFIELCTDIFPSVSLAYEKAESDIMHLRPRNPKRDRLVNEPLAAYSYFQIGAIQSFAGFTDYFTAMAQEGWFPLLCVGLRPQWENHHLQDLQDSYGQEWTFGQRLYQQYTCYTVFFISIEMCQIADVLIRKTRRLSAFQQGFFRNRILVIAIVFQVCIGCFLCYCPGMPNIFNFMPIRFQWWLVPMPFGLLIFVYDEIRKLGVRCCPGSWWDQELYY
T1 sequence (P18434 whole entry partner): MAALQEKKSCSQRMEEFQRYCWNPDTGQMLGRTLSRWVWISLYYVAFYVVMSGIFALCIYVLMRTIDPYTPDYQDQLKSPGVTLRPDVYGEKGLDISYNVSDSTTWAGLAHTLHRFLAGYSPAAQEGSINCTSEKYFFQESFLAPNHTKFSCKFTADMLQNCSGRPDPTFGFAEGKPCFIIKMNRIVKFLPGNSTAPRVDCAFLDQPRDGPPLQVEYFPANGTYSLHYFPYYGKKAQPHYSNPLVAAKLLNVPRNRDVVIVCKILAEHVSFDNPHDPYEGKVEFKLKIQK

melting point [°C] | MIC [1] [µg/mL] | IC50 [2] [nM] | Compound | 50% inhibitory dose (ID50), gastric acid output [3]
138.5 to 139.5 |  |  | Cc1c(C=O)c2cnnc(OCc3ccc(F)cc3)c2n1C[C@H]1C[C@@H]1C | 
128 to 129 | < 12.5 | 42.2 | Cc1c(CO)c2cnnc(OCc3ccc(F)cc3)c2n1C[C@H]1C[C@@H]1C [Example 2, 7-(4-Fluorobenzyloxy)-3-hydroxymethyl-2-methyl-1-[(1S,2S)-2-methylcyclopropylmethyl]pyrrolo[2,3-d]-pyridazine] | less than 10 mg/kg

Compound | melting point [°C] | MIC [1] [µg/mL] | IC50 [2] [nM] | 50% inhibitory dose (ID50), gastric acid output [3]
CC(=O)OCc1c(C)n(C[C@H]2C[C@@H]2C)c2c(OCc3ccc(F)cc3)nncc12 [Example 1, 3-Acetoxymethyl-7-(4-fluorobenzyloxy)-2-methyl-1-[(1S,2S)-2-methylcyclopropylmethyl]pyrrolo[2,3-d]-pyridazine] | 122 to 123 |  |  | 

Reference: patent US6734181B2, “Pyrrolopyridazine compounds” (Sankyo Company, Limited, priority 2000, dated 2004)
